# Test results from US11608313B2, “Adamantylmethylamine derivative and use thereof as pharmaceutical” (TOHOKU UNIVERSITY, priority 2017, dated 2023).
# System: OBX mice
# Test: Tail-suspension test and forced swim test in OBX mice (depression model)
# Type: in vivo
# Settings: single oral dose 1 mg/kg, analyzed after 1 hour
# Method: OBX mice were used as a depression model to determine the effect of TP-014 (chronic oral treatment for 2 weeks (1 mg/kg)) to ameliorate a depression-like symptom. OBX mice are reported to show a decline in cognitive function, but have originally been established as a depression model. Depression analysis was done by tail-suspension test and forced swim test. In the tail-suspension test, mice are hung upside-down by their tail. If the hung mice are affected by depression, they show a longer immobility time. The immobility time of normal mice is shorter since they move actively when hung. In the forced swim test, mice are forced to swim in a beaker filled with water. Depression mice neither swim nor move (just float). The time (immobility time(s)) for which mice stay still in such a way is measured.
# The same model mice were orally treated with a single dose of each of the test compounds (1 mg/kg), and analyzed after 1 hour by tail-suspension test and forced swim test. The results are shown in FIGS. 22-1 (tail-suspension test) and 22-2 (forced swim test).
smiles,measurement,value
"CC(C)(C)C(=O)N[C@@H](c1ccccc1)[C@H]1[C@H]2C[C@@H]3C[C@](Cl)(C2)C[C@@]1(O)C3 [TP-083, N—((R)-((1S,2R,3S,5S,7S)-5-chloro-1-hydroxyadamantan-2-yl)(phenyl)methyl)pivalamide]",ameliorating effect on a depression-like symptom (tail-suspension test and forced swim test) compared with TP-014,higher ameliorating effect on a depression-like symptom than TP-014
